Reference: ChEMBL document CHEMBL1139835, “Novel quinolizidinyl derivatives as antiarrhythmic agents” (J Med Chem, 2007)
Calls of active or inactive are those of the source. The calls are words filed in the database; no cut-off is given here.

Experiments:
[1] = Displacement of [3H]batrachotoxin from sodium channel in rat brain; format: tissue-based
[2] = Negative inotropic activity assessed as decrease in developed tension in isolated guinea pig left atrium; format: functional, tissue-based; settings: Cavia porcellus, Cardiac atrium
[3] = Activity against alternating current-induced arrhythmia in guinea pig left atrium; format: functional, tissue-based; settings: Cavia porcellus, Cardiac atrium
[4] = Negative chronotropic activity assessed as decrease in atrial rate in isolated guinea pig right atrium at 50 uM relative to control; format: functional, Cavia porcellus, Cardiac atrium; design: scale not given: the % may be the effect or the level left
[5] = Negative inotropic activity assessed as decrease in developed tension in isolated guinea pig left atrium at 1 uM relative to control; format: functional, Cavia porcellus, Cardiac atrium; design: scale not given: the % may be the effect or the level left
Aorta [6] = assay: Inhibition of calcium-induced contraction of potassium ion depolarized guinea pig aortic strips at 50 uM; format: functional; settings: Cavia porcellus
[7] = Activity against alternating current-induced arrhythmia in guinea pig left atrium at 50 uM; format: functional, Cavia porcellus, Cardiac atrium
tissue or blood = settings: Cavia porcellus, Cardiac atrium
Cavia porcellus [8] = species on record: Cavia porcellus; assay: (§1) Activity against alternating current-induced arrhythmia in guinea pig left atrium at 100 uM; format: functional; settings: Cardiac atrium
[9] = Negative chronotropic activity assessed as decrease in atrial rate in isolated guinea pig right atrium at 100 uM relative to control; format: functional, Cavia porcellus, Cardiac atrium; design: scale not given: the % may be the effect or the level left
[10] = Negative inotropic activity assessed as decrease in developed tension in isolated guinea pig left atrium at 50 uM relative to control; format: functional, Cavia porcellus, Cardiac atrium; design: scale not given: the % may be the effect or the level left
Aorta [11] = assay: Inhibition of calcium-induced contraction of potassium ion depolarized guinea pig aortic strips at 100 uM; format: functional; settings: Cavia porcellus
[12] = as §1; format: functional, Cavia porcellus, Cardiac atrium
Heart [13] = assay: Intraventricular conduction time in spontaneously beating Langendorff-perfused guinea pig heart at 10 uM; format: functional, Cavia porcellus
Heart [14] = assay: Heart rate in spontaneously beating Langendorff-perfused guinea pig heart at 10 nM; format: functional, Cavia porcellus; design: unit not given here
Heart [15] = assay: Atrioventricular conduction time in spontaneously beating Langendorff-perfused guinea pig heart at 1 nM; format: functional, Cavia porcellus
[16] = Negative inotropic activity assessed as decrease in developed tension in isolated guinea pig left atrium at 5 uM relative to control; format: functional, Cavia porcellus, Cardiac atrium; design: scale not given: the % may be the effect or the level left
Heart [17] = assay: Heart rate in spontaneously beating Langendorff-perfused guinea pig heart at 10 uM; format: functional, Cavia porcellus; design: unit not given here
Heart [18] = assay: Ventricular action potential duration in spontaneously beating Langendorff-perfused guinea pig heart at 1 nM; format: functional, Cavia porcellus
Heart [19] = assay: Ventricular action potential duration in spontaneously beating Langendorff-perfused guinea pig heart at 10 uM; format: functional, Cavia porcellus
Heart [20] = assay: Intraventricular conduction time in spontaneously beating Langendorff-perfused guinea pig heart at 1 uM; format: functional, Cavia porcellus
Heart [21] = assay: Ventricular action potential duration in spontaneously beating Langendorff-perfused guinea pig heart at 1 uM; format: functional, Cavia porcellus
Heart [22] = assay: Intraventricular conduction time in spontaneously beating Langendorff-perfused guinea pig heart at 1 nM; format: functional, Cavia porcellus
Heart [23] = assay: Intraventricular conduction time in spontaneously beating Langendorff-perfused guinea pig heart at 10 nM; format: functional, Cavia porcellus
Heart [24] = assay: Heart rate in spontaneously beating Langendorff-perfused guinea pig heart at 1 nM; format: functional, Cavia porcellus; design: unit not given here
Heart [25] = assay: Atrioventricular conduction time in spontaneously beating Langendorff-perfused guinea pig heart at 0.1 uM; format: functional, Cavia porcellus
Heart [26] = assay: Heart rate in spontaneously beating Langendorff-perfused guinea pig heart at 0.1uM; format: functional, Cavia porcellus; design: unit: beats/min
Heart [27] = assay: Intraventricular conduction time in spontaneously beating Langendorff-perfused guinea pig heart at 0.1 uM; format: functional, Cavia porcellus
Heart [28] = assay: Atrioventricular conduction time in spontaneously beating Langendorff-perfused guinea pig heart at 1 uM; format: functional, Cavia porcellus
Heart [29] = assay: Ventricular action potential duration in spontaneously beating Langendorff-perfused guinea pig heart at 10 nM; format: functional, Cavia porcellus
Heart [30] = assay: Atrioventricular conduction time in spontaneously beating Langendorff-perfused guinea pig heart at 10 nM; format: functional, Cavia porcellus
Heart [31] = assay: Heart rate in spontaneously beating Langendorff-perfused guinea pig heart at 1 uM; format: functional, Cavia porcellus; design: unit not given here
Heart [32] = assay: Atrioventricular conduction time in spontaneously beating Langendorff-perfused guinea pig heart at 10 uM; format: functional, Cavia porcellus
Heart [33] = assay: Ventricular action potential duration in spontaneously beating Langendorff-perfused guinea pig heart at 0.1 uM; format: functional, Cavia porcellus
Cavia porcellus [34] = species on record: Cavia porcellus; assay: (§2) Activity against alternating current-induced arrhythmia in guinea pig left atrium at 10 uM; format: functional; settings: Cardiac atrium
[35] = Negative inotropic activity assessed as decrease in developed tension in isolated guinea pig left atrium at 100 uM relative to control; format: functional, Cavia porcellus, Cardiac atrium; design: scale not given: the % may be the effect or the level left
[36] = Positive chronotropic activity in isolated guinea pig right atrium relative to control; format: functional, Cavia porcellus, Cardiac atrium
[37] = as §2; format: functional, Cavia porcellus, Cardiac atrium
[38] = Negative inotropic activity assessed as decrease in developed tension in isolated guinea pig left atrium at 10 uM relative to control; format: functional, Cavia porcellus, Cardiac atrium; design: scale not given: the % may be the effect or the level left

Cc1cc(C(=O)c2ccccc2)ccc1NC(=O)C[C@@H]1CCCN2CCCC[C@H]12
IC50 [1]: 3.7 µM

Cc1cc(C(=O)c2ccccc2)cc(C)c1OC[C@H]1CCCN2CCCC[C@H]12
EC50 [2]: 160 nM | EC50 [3]: 19.9 µM | Activity [4]: 75% | Activity [5]: 64% | inhibition at 50 µM (Aorta [6]): 38% | Activity [7]: 104% | EC50 (tissue or blood): 6.63 µM

Cc1cc([N+](=O)[O-])cc(C)c1NC(=O)C[C@@H]1CCCN2CCCC[C@H]12
EC50 [2]: 3460 nM | Activity (Cavia porcellus [8]): inactive | Activity [9]: 25% | Activity [10]: 79% | inhibition at 100 µM (Aorta [11]): 4%

CS(=O)(=O)Nc1ccc(C(=O)NC[C@@H]2CCCN3CCCC[C@H]23)cc1
EC50 [2]: 250 nM | Activity [12]: 34% | Activity [9]: 4% | Activity [10]: 92% | inhibition at 100 µM (Aorta [11]): 1%

Cc1cc(N)cc(C)c1OC[C@@H]1CCCN2CCCC[C@H]12
EC50 [2]: 290 nM | Activity (Heart [13]): 32 ms | Activity (Heart [14]): 190 | Activity (Heart [15]): 58 ms | Activity [16]: 83% | Activity (Heart [17]): 175 | EC50 [3]: 0.97 µM | Activity (Heart [18]): 160 ms | Activity (Heart [19]): 205 ms | Activity (Heart [20]): 32 ms | Activity [12]: 166% | Activity (Heart [21]): 194 ms | Activity [9]: 38% | Activity (Heart [22]): 30 ms | Activity (Heart [23]): 33 ms | Activity (Heart [24]): 192 | Activity (Heart [25]): 64 ms | Activity (Heart [26]): 184 | Activity (Heart [27]): 31 ms | Activity (Heart [28]): 66 ms | Activity (Heart [29]): 170 ms | Activity (Heart [30]): 60 ms | Activity (Heart [31]): 180 | Activity (Heart [32]): 70 ms | inhibition at 100 µM (Aorta [11]): 15% | Activity (Heart [33]): 182 ms

Cc1cc(C(=O)c2ccccc2)cc(C)c1NC(=O)C[C@@H]1CCCN2CCCC[C@H]12
EC50 [2]: 760 nM | EC50 [3]: 4.81 µM | Activity [4]: 70% | Activity [7]: 55% | Activity [10]: 88% | EC50 (tissue or blood): 3.98 µM | inhibition at 100 µM (Aorta [11]): 31%

C=C[C@H]1CN2CC[C@H]1C[C@@H]2[C@@H](O)c1ccnc2ccc(OC)cc12 [QUINIDINE]
EC50 [2]: 3380 nM | Activity (Heart [13]): 39 ms | Activity (Heart [15]): 53 ms | EC50 [3]: 10.3 µM | Activity [4]: 86% | Activity (Heart [20]): 35 ms | Activity (Heart [21]): 200 ms | Activity (Heart [22]): 25 ms | Activity (Heart [23]): 27 ms | Activity (Heart [25]): 57 ms | Activity (Heart [26]): 140 | Activity (Heart [27]): 31 ms | Activity [7]: 69% | Activity (Heart [28]): 60 ms | Activity [10]: 71% | EC50 (tissue or blood): 3.99 µM | Activity (Heart [30]): 54 ms | Activity (Heart [31]): 123 | Activity (Heart [32]): 70 ms | inhibition at 100 µM (Aorta [11]): 30% | Activity (Heart [33]): 182 ms

Cc1cc(NS(C)(=O)=O)cc(C)c1NC(=O)C[C@@H]1CCCN2CCCC[C@H]12
Activity (Cavia porcellus [34]): inactive | EC50 [2]: 310 nM | Activity [35]: 86% | Activity [36]: 8% | inhibition at 100 µM (Aorta [11]): 24%

CCCCc1oc2ccccc2c1C(=O)c1cc(I)c(OCCN(CC)CC)c(I)c1 [AMIODARONE]
Activity (Heart [13]): 24 ms | Activity [35]: 30% | Activity (Heart [14]): 180 | Activity (Heart [15]): 54 ms | Activity (Heart [17]): 132 | Activity (Heart [18]): 161 ms | Activity (Heart [19]): 182 ms | Activity (Heart [20]): 22 ms | Activity [12]: 10% | Activity (Heart [21]): 174 ms | Activity [9]: 72% | Activity (Heart [22]): 20 ms | Activity (Heart [23]): 20 ms | Activity (Heart [24]): 187 | Activity (Heart [25]): 55 ms | Activity (Heart [26]): 171 | Activity (Heart [27]): 21 ms | Activity (Heart [28]): 56 ms | Activity (Heart [29]): 161 ms | Activity (Heart [30]): 55 ms | Activity (Heart [31]): 164 | Activity (Heart [32]): 58 ms | inhibition at 100 µM (Aorta [11]): 3% | Activity (Heart [33]): 169 ms

Cc1cc(C(=O)c2ccccc2)cc(C)c1OC[C@@H]1CCCN2CCCC[C@H]12
EC50 [2]: 160 nM | EC50 [3]: 6.75 µM | Activity [4]: 41% | Activity [7]: 64% | Activity [10]: 94% | inhibition at 100 µM (Aorta [11]): 17%

Cc1cc([N+](=O)[O-])cc(C)c1OC[C@@H]1CCCN2CCCC[C@H]12
EC50 [2]: 8390 nM | Activity [35]: 91% | Activity [4]: 66% | Activity [7]: 27% | EC50 (tissue or blood): 23.7 µM | inhibition at 100 µM (Aorta [11]): 16%

Cc1cc(NS(C)(=O)=O)cc(C)c1OC[C@H]1CCCN2CCCC[C@H]12
EC50 [2]: 140 nM | Activity [5]: 64% | Activity [12]: 5% | Activity [9]: 34% | inhibition at 100 µM (Aorta [11]): 23%

O=C(NC[C@@H]1CCCN2CCCC[C@H]12)c1ccc([N+](=O)[O-])cc1
EC50 [2]: 38 nM | Activity [5]: 74% | Activity [12]: 18% | Activity [9]: 28% | inhibition at 100 µM (Aorta [11]): 18%

Nc1ccc(C(=O)NC[C@@H]2CCCN3CCCC[C@H]23)cc1
Activity [37]: 28% | EC50 [2]: 460 nM | Activity [35]: 95% | Activity [36]: 13% | inhibition at 100 µM (Aorta [11]): 3%

Cc1cc(N)cc(C)c1OC[C@H]1CCCN2CCCC[C@H]12
Activity [37]: 38% | EC50 [2]: 630 nM | Activity [38]: 91% | Activity [9]: 44% | inhibition at 50 µM (Aorta [6]): 32%

CC(=O)Nc1ccc(C(=O)NC[C@@H]2CCCN3CCCC[C@H]23)cc1
EC50 [2]: 59 nM | Activity (Heart [13]): 33 ms | Activity (Heart [14]): 175 | Activity (Heart [15]): 62 ms | Activity (Heart [17]): 165 | EC50 [3]: 0.47 µM | Activity [4]: 14% | Activity (Heart [18]): 170 ms | Activity (Heart [19]): 204 ms | Activity [38]: 86% | Activity (Heart [20]): 34 ms | Activity (Heart [21]): 195 ms | Activity (Heart [22]): 34 ms | Activity (Heart [23]): 33 ms | Activity (Heart [24]): 180 | Activity (Heart [25]): 70 ms | Activity (Heart [26]): 170 | Activity (Heart [27]): 32 ms | Activity [7]: 92% | Activity (Heart [28]): 72 ms | Activity (Heart [29]): 182 ms | Activity (Heart [30]): 65 ms | Activity (Heart [31]): 166 | Activity (Heart [32]): 75 ms | inhibition at 100 µM (Aorta [11]): 3% | Activity (Heart [33]): 190 ms
